Source: patent US20120128607A1, “EXTRACT OF WHOLE SEEDS OF MORNINGA SP, AND USE THEREOF IN COSMETIC AND/OR DERMATOLOGICAL COMPOSITIONS” (PIERRE FABRE DERMO-COSMETIQUE, priority 2009, published 2012)

What was measured:
ABC G1 = assay: Model of differentiation of normal human keratinocytes: gene expression (mRNA) of ABC G1; type: cell-based; conditions: NHK, with respect to non-treated cells
Description: (§1) First, the effects of extracts according to the invention have first been studied from a model of differentiated normal human keratinocytes (NHK).
(§2) The effect of the extracts of Moringa sp. on the gene expression of different proteins involved in the synthesis or the transport of the epidermal lipids, ABC G1 and hDES2, has been analyzed.
(§3) The results are expressed in percentage of stimulation of the gene expression (mRNA) of different markers of the epidermal differentiation expressed by the NHKs (with respect to the non-treated cells). A significant positive effect is considered from 100% of stimulation.

hDES2 = assay: Model of differentiation of normal human keratinocytes: gene expression (mRNA) of hDES2; type: cell-based; conditions: NHK, with respect to non-treated cells
Description: as §1, §2, §3

[1] = DPPH test (antioxidant activity); conditions: methanolic solution of DPPH at 0.06 mM, absorption at 517 nm
Description: The antioxidant activity of the seed extract of Moringa oleifera according to the present invention has been evaluated with the DPPH test. This test is based on the measure of the capacity for trapping antioxidants of the stable radical 2.2-diphenyl-1-picrylhydrazyl (DPPH). This stable radical, having absorption at 517 nm, is reduced to the corresponding hydrazine when it reacts with a hydrogen donor.
The results obtained are expressed in IC50, corresponding to the concentration giving 50% reduction in absorbance of a methanolic solution of DPPH at 0.06 mM.

Compound: CN(CCOc1ccc(CC2SC(=O)NC2=O)cc1)c1ccccn1 (centres unmarked) [Roziglitazone, roziglitazone]
- percentage of stimulation of the gene expression (mRNA) of ABC G1 (ABC G1; 10 μM): 330%
- percentage of stimulation of the gene expression (mRNA) of hDES2 (hDES2; 10 μM): 190%

Compound: C=C1CC[C@H](O)C/C1=C/C=C1\CCC[C@]2(C)[C@@H]([C@H](C)CCCC(C)C)CC[C@@H]12 [Vit D3, vitamin D3]
- percentage of stimulation of the gene expression (mRNA) of ABC G1 (ABC G1; 5 μM): 170%
- percentage of stimulation of the gene expression (mRNA) of hDES2 (hDES2; 5 μM): 780%

Compound: Vitamin E
- IC50 (concentration giving 50% reduction in absorbance of DPPH solution) [1]: 6 to 10 µg/mL
